From patent publication US9006246B2, “Tetrahydrocarboline derivative” (Ono Pharmaceutical Co., Ltd., priority 2010, dated 2015)
Counter-ions that a name gives are not always drawn.

Biological target: human ENPP2 (Homo sapiens (Human), UniProt Q13822)
Test: Measurement of human ENPP2 inhibitory activity
Type: biochemical
Details: 16:0-LPC substrate, 37° C., 24 hours; for inhibition at 1 µM: 1 μM test compound, read-out: ENPP2 inhibition rate(%) (1 μM)
Experimental: 10 μL of a test compound solution (10% dimethyl sulfoxide) at each concentration and 40 μL of a 5 μg/mL human ENPP2 solution (buffer A: 100 mmol/L Tris-HCl (pH 9.0), 500 mmol/L NaCl, 5 mmol/L MgCl2, 0.05% Triton X-100) were mixed, 50 μL of a 2 mmol/L 16:0-lysophosphatidylcholine (LPC) solution (buffer A) was further added to react at 37° C. for 24 hours. Subsequently, to 10 μL of the reaction solution was added 90 μL of a measurement buffer (0.5 mmol/L aminoantipyrine, 0.3 mmol/L N-ethyl-N-(2-hydroxy-3-sulfopropyl)-3-methylaniline, 1 U/mL peroxidase, 3 U/mL choline oxidase, 100 mmol/L Tris-HCl (pH 8.5), 5 mmol/L CaCl2) to react at 37° C. for 20 minutes, and spectrophotometric determination was performed at 555 nm.
Using a standard curve, a choline production amount (enzyme activity) in each test compound was calculated, and the inhibitory activity rate of each test compound was calculated, wherein the enzyme activity in a positive control to which a test compound is not added, was a 0% inhibition rate, and the enzyme activity in a negative control to which a test compound and human ENPP2 are not added, were 100% inhibition. Further, concerning the present compounds shown in Table 3, an IC50 value was calculated from inhibitory activity rate at each concentration.

| Structure (SMILES) | inhibition at 1 µM [%] | IC50 [µM] |
| --- | --- | --- |
| COC(=O)CCCCC(=O)N1CCc2c(n(CCCc3ccccc3)c3ccccc23)C1 [Example 2, methyl 6-oxo-6-[9-(3-phenylpropyl)-1,3,4,9-tetrahydro-2H-beta-carbolin-2-yl]hexanoate] | 67.7 |  |
| O=C(O)CCCCCC(=O)N1CCc2c(n(CCCc3ccc(F)cc3)c3ccccc23)C1 [Example 3(19), 7-{9-[3-(4-fluorophenyl)propyl]-1,3,4,9-tetrahydro-2H-beta-carbolin-2-yl}-7-oxoheptanoic acid] | 95.1 |  |
| O=C(O)CCCCC(=O)N1CCc2c(n(CCC3CCCCC3)c3ncccc23)C1 [Example 9(2), 6-[9-(2-cyclohexylethyl)-5,6,8,9-tetrahydro-7H-pyrido[4′,3′:4,5]pyrrolo[2,3-b]pyridin-7-yl]-6-oxohexanoic acid] |  | 0.016 |
| O=C(O)CCCC(=O)N1CCc2c(n(CCCc3ccccc3)c3ncccc23)C1 [Example 9(26), 5-oxo-5-[9-(3-phenylpropyl)-5,6,8,9-tetrahydro-7H-pyrido[4′,3′:4,5]pyrrolo[2,3-b]pyridin-7-yl]pentanoic acid] | 59.3 |  |
| O=C(O)CCCCC(=O)N1CCc2c(n(CCOc3ccccc3)c3ncccc23)C1 [Example 9(28), 6-oxo-6-[9-(2-phenoxyethyl)-5,6,8,9-tetrahydro-7H-pyrido[4′,3′:4,5]pyrrolo[2,3-b]pyridin-7-yl]hexanoic acid] | 76.6 |  |
| O=C(O)CCCCC(=O)N1CCc2c(n(CCSc3ccccc3)c3ncccc23)C1 [Example 9(31), 6-oxo-6-{9-[2-(phenylthio)ethyl]-5,6,8,9-tetrahydro-7H-pyrido[4′,3′:4,5]pyrrolo[2,3-b]pyridin-7-yl}hexanoic acid] | 82.4 |  |
| O=C(O)CCCCC(=O)N1CCc2c(n(Cc3cccs3)c3ncccc23)C1 [Example 9(59), 6-oxo-6-[9-(2-thienylmethyl)-5,6,8,9-tetrahydro-7H-pyrido[4′,3′:4,5]pyrrolo[2,3-b]pyridin-7-yl]hexanoic acid] | 69.3 |  |
| O=C(O)CCCCC(=O)N1CCc2c(n(Cc3cccc(F)c3)c3ncccc23)C1 [Example 9, 6-[9-(3-fluorobenzyl)-5,6,8,9-tetrahydro-7H-pyrido[4′,3′:4,5]pyrrolo[2,3-b]pyridin-7-yl]-6-oxohexanoic acid] |  | 0.091 |
| CC(C)(CCCC(=O)N1CCc2c(n(Cc3ccccc3)c3ccccc23)C1)C(=O)O [Example 12(27), 6-(9-benzyl-1,3,4,9-tetrahydro-2H-beta-carbolin-2-yl)-2,2-dimethyl-6-oxohexanoic acid] | 91.9 |  |
| CC(C)(CCCC(=O)N1CCc2c(n(Cc3ccc(Cl)s3)c3ncccc23)C1)C(=O)O [Example 12(42), 6-{9-[(5-chloro-2-thienyl)methyl]-5,6,8,9-tetrahydro-7H-pyrido[4′,3′:4,5]pyrrolo[2,3-b]pyridin-7-yl}-2,2-dimethyl-6-oxohexanoic acid] |  | 0.0096 |
| CC(C)(CCCC(=O)N1CCc2c(n(Cc3ccc(F)cc3F)c3ncccc23)C1)C(=O)O [Example 12(97), 6-[9-(2,4-difluorobenzyl)-5,6,8,9-tetrahydro-7H-pyrido[4′,3′:4,5]pyrrolo[2,3-b]pyridin-7-yl]-2,2-dimethyl-6-oxohexanoic acid] |  | 0.0067 |
| CC(C)(CCC(=O)N1CCc2c(n(Cc3ccccc3)c3ccccc23)C1)CC(=O)O [Example 15, 6-(9-benzyl-1,3,4,9-tetrahydro-2H-beta-carbolin-2-yl)-3,3-dimethyl-6-oxohexanoic acid] | 84.1 |  |
| CC(C)(OCC(=O)N1CCc2c(n(Cc3cccc(F)c3)c3ncccc23)C1)C(=O)O [Example 18(1), 2-{2-[9-(3-fluorobenzyl)-5,6,8,9-tetrahydro-7H-pyrido[4′,3′:4,5]pyrrolo[2,3-b]pyridin-7-yl]-2-oxoethoxy}-2-methylpropanoic acid] | 89.6 |  |
| CC(C)(CNCC(=O)N1CCc2c(n(Cc3cccc(F)c3)c3ncccc23)C1)C(=O)O [Example 20, 3-({2-[9-(3-fluorobenzyl)-5,6,8,9-tetrahydro-7H-pyrido[4′,3′:4,5]pyrrolo[2,3-b]pyridin-7-yl]-2-oxoethyl}amino)-2,2-dimethylpropanoic acid hydrochloride] |  | 0.083 |
| CC1CN(C(=O)CCCC(C)(C)C(=O)O)Cc2c1c1cccnc1n2Cc1cccc(F)c1 (stereo not drawn) [Example 23, 6-[9-(3-fluorobenzyl)-5-methyl-5,6,8,9-tetrahydro-7H-pyrido[4′,3′:4,5]pyrrolo[2,3-b]pyridin-7-yl]-2,2-dimethyl-6-oxohexanoic acid] | 96.2 |  |
| O=C(C[C@H]1CC[C@H](C(=O)O)CC1)N1CCc2c(n(Cc3ccc(F)cc3F)c3ncccc23)C1 [Example 31(32), trans-4-{2-[9-(2,4-difluorobenzyl)-5,6,8,9-tetrahydro-7H-pyrido[4′,3′:4,5]pyrrolo[2,3-b]pyridin-7-yl]-2-oxoethyl}cyclohexanecarboxylic acid] | 98.2 |  |
| O=C(C[C@H]1CC[C@H](C(=O)O)CC1)N1CCc2c(n(Cc3ccc(Cl)cc3)c3ncccc23)C1 [Example 31(34), trans-4-{2-[9-(4-chlorobenzyl)-5,6,8,9-tetrahydro-7H-pyrido[4′,3′:4,5]pyrrolo[2,3-b]pyridin-7-yl]-2-oxoethyl}cyclohexanecarboxylic acid] | 98.6 |  |
| O=C(CC12CCC(C(=O)O)(CC1)CC2)N1CCc2c(n(Cc3cccc(F)c3)c3ncccc23)C1 [Example 31(127), 4-{2-[9-(3-fluorobenzyl)-5,6,8,9-tetrahydro-7H-pyrido[4′,3′:4,5]pyrrolo[2,3-b]pyridin-7-yl]-2-oxoethyl}bicyclo[2.2.2]octane-1-carboxylic acid] |  | 0.011 |
| O=C(CC12CCC(C(=O)O)(CC1)CC2)N1CCc2c(n(Cc3cc(F)cc(F)c3)c3ncccc23)C1 [Example 31(128), 4-{2-[9-(3,5-difluorobenzyl)-5,6,8,9-tetrahydro-7H-pyrido[4′,3′:4,5]pyrrolo[2,3-b]pyridin-7-yl]-2-oxoethyl}bicyclo[2.2.2]octane-1-carboxylic acid] | 99 |  |
| O=C(CC12CCC(C(=O)O)(CC1)CC2)N1CCc2c(n(Cc3cc(F)c(F)cc3F)c3ncccc23)C1 [Example 31(129), 4-{2-oxo-2-[9-(2,4,5-trifluorobenzyl)-5,6,8,9-tetrahydro-7H-pyrido[4′,3′:4,5]pyrrolo[2,3-b]pyridin-7-yl]ethyl}bicyclo[2.2.2]octane-1-carboxylic acid] | 99.8 |  |
| O=C(CC12CCC(C(=O)O)(CC1)CC2)N1CCc2c(n(Cc3ccc(Cl)cc3)c3ncccc23)C1 [Example 31(140), 4-{2-[9-(4-chlorobenzyl)-5,6,8,9-tetrahydro-7H-pyrido[4′,3′:4,5]pyrrolo[2,3-b]pyridin-7-yl]-2-oxoethyl}bicyclo[2.2.2]octane-1-carboxylic acid] |  | 0.011 |
| CC1(C)[C@@H](CC(=O)N2CCc3c(n(Cc4ccc(Cl)cc4F)c4ncccc34)C2)CC[C@@]1(C)C(=O)O [Example 31(160), (1R,3R)-3-{2-[9-(4-chloro-2-fluorobenzyl)-5,6,8,9-tetrahydro-7H-pyrido[4′,3′:4,5]pyrrolo[2,3-b]pyridin-7-yl]-2-oxoethyl}-1,2,2-trimethylcyclopentanecarboxylic acid] | 99.5 |  |
| CC1(C)[C@@H](CC(=O)N2CCc3c(n(Cc4ccc(F)cc4)c4ncccc34)C2)CC[C@@]1(C)C(=O)O [Example 31(162), (1R,3R)-3-{2-[9-(4-fluorobenzyl)-5,6,8,9-tetrahydro-7H-pyrido[4′,3′:4,5]pyrrolo[2,3-b]pyridin-7-yl]-2-oxoethyl}-1,2,2-trimethylcyclopentanecarboxylic acid] | 99.5 |  |
| CC1(C)[C@@H](CC(=O)N2CCc3c(n(Cc4ccc(F)c(Cl)c4)c4ncccc34)C2)CC[C@@]1(C)C(=O)O [Example 31(169), (1R,3R)-3-{2-[9-(3-chloro-4-fluorobenzyl)-5,6,8,9-tetrahydro-7H-pyrido[4′,3′:4,5]pyrrolo[2,3-b]pyridin-7-yl]-2-oxoethyl}-1,2,2-trimethylcyclopentanecarboxylic acid] |  | 0.013 |
| O=C(CC12CCC(C(=O)O)(CC1)CC2)N1CCc2c(n(Cc3ccc(F)c(F)c3)c3ncccc23)C1 [Example 31(170), 4-{2-[9-(3,4-difluorobenzyl)-5,6,8,9-tetrahydro-7H-pyrido[4′,3′:4,5]pyrrolo[2,3-b]pyridin-7-yl]-2-oxoethyl}bicyclo[2.2.2]octane-1-carboxylic acid] | 98 |  |
| O=C(CC12CCC(C(=O)O)(CC1)C2)N1CCc2c(n(Cc3cccc(F)c3)c3ncccc23)C1 [Example 31(181), 4-{2-[9-(3-fluorobenzyl)-5,6,8,9-tetrahydro-7H-pyrido[4′,3′:4,5]pyrrolo[2,3-b]pyridin-7-yl]-2-oxoethyl}bicyclo[2.2.1]heptane-1-carboxylic acid] | 98.7 |  |
| O=C(CC12CCC(C(=O)O)(CC1)C2)N1CCc2c(n(Cc3ccc(F)cc3F)c3ncccc23)C1 [Example 31(182), 4-{2-[9-(2,4-difluorobenzyl)-5,6,8,9-tetrahydro-7H-pyrido[4′,3′:4,5]pyrrolo[2,3-b]pyridin-7-yl]-2-oxoethyl}bicyclo[2.2.1]heptane-1-carboxylic acid] | 98.9 |  |
